According to paper PMC6886798, “Expression of myeloid Src-family kinases is associated with poor prognosis in AML and influences Flt3-ITD kinase inhibitor acquired resistance” (PLoS ONE, 2019):
One block for each molecule: values may come before it.

Experiments:
[1] = tested on: MOLM14 R1 (A-419259-resistant population); assay: CellTiter-Blue cell viability; format: cell-based, human; details: Homo sapiens, MOLM-14, S11 Fig, read-out: PRT062607 IC50, nM (growth suppression)
Description: (§1) Cell viability was assessed using the CellTiter-Blue reagent according to the manufacturer’s instructions (Promega). Fluorescence intensity, which correlates directly with viable cell number, was measured using a SpectraMax M5 microplate reader. Each experiment included three technical replicates per condition, and each experiment was repeated at least three times. […] Viability of each cell population was measured three times per week using the CellTiter-Blue assay.

[2] = tested on: MOLM14 R2 (A-419259-resistant population); assay: CellTiter-Blue cell viability; format: cell-based, human; details: Homo sapiens, MOLM-14, S11 Fig, read-out: PRT062607 IC50, nM (growth suppression)
Description: as §1

[3] = tested on: MOLM13 R3 (A-419259-resistant population); assay: CellTiter-Blue cell viability; format: cell-based, human; details: Homo sapiens, MOLM-13, S11 Fig, read-out: PRT062607 IC50, nM (growth suppression)
Description: as §1

[4] = tested on: MV4-11 R2 (A-419259-resistant population); assay: CellTiter-Blue cell viability; format: cell-based, human; details: Homo sapiens, S11 Fig, read-out: PRT062607 IC50, nM (growth suppression)
Description: as §1

[5] = tested on: MV4-11 R3 (A-419259-resistant population); assay: CellTiter-Blue cell viability; format: cell-based, human; details: Homo sapiens, S11 Fig, read-out: PRT062607 IC50, nM (growth suppression)
Description: as §1

[6] = tested on: MOLM14 R3 (A-419259-resistant population); assay: CellTiter-Blue cell viability; format: cell-based, human; details: Homo sapiens, MOLM-14, S11 Fig, read-out: PRT062607 IC50, nM (growth suppression)
Description: as §1

MV4-11 cells (parent) = assay: CellTiter-Blue cell viability; format: cell-based, human; details: Homo sapiens; S11 Fig; MV4-11 Parent; read-out: PRT062607 IC50, nM (growth suppression)
Description: (§2) Gibco/ThermoFisher). Parental TF-1 cells also require recombinant human GM-CSF (1 ng/mL; ThermoFisher). MOLM13 and MOLM14 cells were obtained from Leibniz Institute Deutsche Sammlung von Mikroorganismen (DSMZ) and grown in RPMI 1640 medium containing 20% FBS and Antibiotic-Antimycotic. […] Cell viability was assessed using the CellTiter-Blue reagent according to the manufacturer’s instructions (Promega). Fluorescence intensity, which correlates directly with viable cell number, was measured using a SpectraMax M5 microplate reader. Each experiment included three technical replicates per condition, and each experiment was repeated at least three times.

MOLM14 cells (parent) = assay: CellTiter-Blue cell viability; format: cell-based, human; details: Homo sapiens, MOLM-14, S11 Fig, read-out: PRT062607 IC50, nM (growth suppression)
Description: as §2

MOLM13 cells (parent) = assay: CellTiter-Blue cell viability; format: cell-based, human; details: Homo sapiens, MOLM-13, S11 Fig, read-out: PRT062607 IC50, nM (growth suppression)
Description: as §2

[7] = tested on: MV4-11, MOLM13 and MOLM14 parent and A-419259-resistant cell populations; assay: CellTiter-Blue cell viability, parent and resistant AML populations as a group; format: cell-based, human
Description: as §1

Lyn T338L = biological target: T1, Lyn T338L (Homo sapiens, UniProt P07948, T319L); assay: Z'-LYTE in vitro kinase assay; format: biochemical; details: Tyr-2 peptide 1.0 μM, read-out: ATP Km
T1 construct: Recombinant near-full-length kinases, consisting of the SH2, SH3 and kinase domains plus the negative regulatory tail; made in house; host or cells: E. coli BL21Star (DE3), co-expressed with Csk and PTP1B

Lyn T338F = biological target: T2, Lyn T338F (Homo sapiens, UniProt P07948, T319F); assay: Z'-LYTE in vitro kinase assay; format: biochemical; details: Tyr-2 peptide 1.0 μM, read-out: ATP Km
T2 construct: Recombinant near-full-length kinases, consisting of the SH2, SH3 and kinase domains plus the negative regulatory tail; made in house; host or cells: E. coli BL21Star (DE3), co-expressed with Csk and PTP1B

Hck T338M = biological target: T3, Hck T338M (Homo sapiens, UniProt P08631, T333M); assay: Z'-LYTE in vitro kinase assay; format: biochemical; details: Hck T338M; Tyr-2 peptide 1.0 μM; read-out: ATP Km
T3 construct: Recombinant near-full-length kinases, consisting of the SH2, SH3 and kinase domains plus the negative regulatory tail; made in house; host or cells: E. coli BL21Star (DE3), co-expressed with Csk and PTP1B

Hck wild-type = biological target: T4, Hck wild-type (Homo sapiens, UniProt P08631); assay: Z'-LYTE in vitro kinase assay; format: biochemical; details: Tyr-2 peptide 1.0 μM, read-out: ATP Km
T4 construct: Recombinant near-full-length kinases, consisting of the SH2, SH3 and kinase domains plus the negative regulatory tail; made in house; host or cells: E. coli BL21Star (DE3), co-expressed with Csk and PTP1B

Fgr T338M = biological target: T5, Fgr T338M (Homo sapiens, UniProt P09769, T334M); assay: Z'-LYTE in vitro kinase assay; format: biochemical; details: Fgr T338M; Tyr-2 peptide 1.0 μM; read-out: ATP Km
T5 construct: Recombinant near-full-length kinases, consisting of the SH2, SH3 and kinase domains plus the negative regulatory tail; made in house; host or cells: E. coli BL21Star (DE3), co-expressed with Csk and PTP1B
Description: (§3) Assays were performed in quadruplicate in 384-well low volume, non-binding, black polystyrene microplates (Corning) according to the manufacturer’s instructions. Briefly, this assay measures phosphorylation of the Tyr2 peptide substrate which is tagged with coumarin and fluorescein on its N- and C-termini, respectively, to form a FRET pair. After the kinase reaction, a development step involves site-specific proteolytic cleavage of the unphosphorylated but not the phosphorylated peptide. […] Kinase reactions were run in 50 mM HEPES, pH 7.5, 10 mM MgCl2, 1 mM EGTA, and 0.01% BRIJ-35 (buffer supplied by the manufacturer). […] Following incubation for 1 h at ambient temperature, reactions were quenched by addition of the development protease, and coumarin and fluorescein fluorescence were measured 1 h later on a Molecular Devices SpectraMax M5 plate reader. […] For experiments with inhibitors, compounds were preincubated with kinase for 30 min prior to initiation of the reaction by the addition of ATP.

Fgr wild-type = biological target: T6, Fgr wild-type (Homo sapiens, UniProt P09769); assay: Z'-LYTE in vitro kinase assay; format: biochemical; details: Tyr-2 peptide 1.0 μM, read-out: ATP Km
T6 construct: Recombinant near-full-length kinases, consisting of the SH2, SH3 and kinase domains plus the negative regulatory tail; made in house; host or cells: E. coli BL21Star (DE3), co-expressed with Csk and PTP1B
Description: as §3

Lyn wild-type = biological target: T7, Lyn wild-type (Homo sapiens, UniProt P07948); assay: Z'-LYTE in vitro kinase assay; format: biochemical; details: Tyr-2 peptide 1.0 μM, read-out: ATP Km
T7 construct: Recombinant near-full-length kinases, consisting of the SH2, SH3 and kinase domains plus the negative regulatory tail; made in house; host or cells: E. coli BL21Star (DE3), co-expressed with Csk and PTP1B

Fgr T338L = biological target: T8, Fgr T338L (Homo sapiens, UniProt P09769, T334L); assay: Z'-LYTE in vitro kinase assay; format: biochemical; details: Tyr-2 peptide 1.0 μM, read-out: ATP Km
T8 construct: Recombinant near-full-length kinases, consisting of the SH2, SH3 and kinase domains plus the negative regulatory tail; made in house; host or cells: E. coli BL21Star (DE3), co-expressed with Csk and PTP1B
Description: as §3

Hck T338F = biological target: T9, Hck T338F (Homo sapiens, UniProt P08631, T333F); assay: Z'-LYTE in vitro kinase assay; format: biochemical; details: Hck T338F; Tyr-2 peptide 1.0 μM; read-out: ATP Km
T9 construct: Recombinant near-full-length kinases, consisting of the SH2, SH3 and kinase domains plus the negative regulatory tail; made in house; host or cells: E. coli BL21Star (DE3), co-expressed with Csk and PTP1B

Hck T338L = biological target: T10, Hck T338L (Homo sapiens, UniProt P08631, T333L); assay: Z'-LYTE in vitro kinase assay; format: biochemical; details: Hck T338L; Tyr-2 peptide 1.0 μM; read-out: ATP Km
T10 construct: Recombinant near-full-length kinases, consisting of the SH2, SH3 and kinase domains plus the negative regulatory tail; made in house; host or cells: E. coli BL21Star (DE3), co-expressed with Csk and PTP1B

Fgr T338F = biological target: T11, Fgr T338F (Homo sapiens, UniProt P09769, T334F); assay: Z'-LYTE in vitro kinase assay; format: biochemical; details: Fgr T338F; Tyr-2 peptide 1.0 μM; read-out: ATP Km
T11 construct: Recombinant near-full-length kinases, consisting of the SH2, SH3 and kinase domains plus the negative regulatory tail; made in house; host or cells: E. coli BL21Star (DE3), co-expressed with Csk and PTP1B
Description: as §3

Lyn T338M = biological target: T12, Lyn T338M (Homo sapiens, UniProt P07948, T319M); assay: Z'-LYTE in vitro kinase assay; format: biochemical; details: Tyr-2 peptide 1.0 μM, read-out: ATP Km
T12 construct: Recombinant near-full-length kinases, consisting of the SH2, SH3 and kinase domains plus the negative regulatory tail; made in house; host or cells: E. coli BL21Star (DE3), co-expressed with Csk and PTP1B

[8] = tested on: myeloid Src-family kinases; set-up: method as in S. Hellwig and T. Smithgall, unpublished data; details: ref S. Hellwig and T. Smithgall, unpublished data; cited from earlier work

T9 sequence (P08631 78-526 T333F limits assumed): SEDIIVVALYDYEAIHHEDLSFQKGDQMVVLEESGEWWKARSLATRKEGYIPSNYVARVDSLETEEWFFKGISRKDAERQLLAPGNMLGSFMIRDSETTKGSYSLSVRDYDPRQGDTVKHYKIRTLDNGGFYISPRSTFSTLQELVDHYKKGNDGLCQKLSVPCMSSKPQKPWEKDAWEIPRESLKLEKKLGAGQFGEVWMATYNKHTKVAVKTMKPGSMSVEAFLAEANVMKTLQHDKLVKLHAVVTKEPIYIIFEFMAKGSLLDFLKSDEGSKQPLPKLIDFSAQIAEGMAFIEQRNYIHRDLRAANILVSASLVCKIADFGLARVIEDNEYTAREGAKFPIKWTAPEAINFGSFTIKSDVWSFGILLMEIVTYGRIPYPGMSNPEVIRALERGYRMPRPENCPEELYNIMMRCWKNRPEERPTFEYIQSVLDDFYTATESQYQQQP
T7 sequence (P07948 63-512 limits assumed): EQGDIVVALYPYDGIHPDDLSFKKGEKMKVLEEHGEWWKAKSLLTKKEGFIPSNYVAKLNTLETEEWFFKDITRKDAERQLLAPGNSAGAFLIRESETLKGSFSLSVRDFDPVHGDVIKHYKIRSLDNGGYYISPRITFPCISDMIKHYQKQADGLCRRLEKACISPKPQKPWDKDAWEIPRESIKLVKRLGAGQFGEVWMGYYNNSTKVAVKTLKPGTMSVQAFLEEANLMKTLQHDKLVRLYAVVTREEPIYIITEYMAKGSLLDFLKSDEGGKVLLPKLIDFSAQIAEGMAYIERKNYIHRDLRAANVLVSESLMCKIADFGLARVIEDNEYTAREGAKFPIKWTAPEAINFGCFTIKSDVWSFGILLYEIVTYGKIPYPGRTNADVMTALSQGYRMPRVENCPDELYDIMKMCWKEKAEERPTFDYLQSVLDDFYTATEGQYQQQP
T10 sequence (P08631 78-526 T333L limits assumed): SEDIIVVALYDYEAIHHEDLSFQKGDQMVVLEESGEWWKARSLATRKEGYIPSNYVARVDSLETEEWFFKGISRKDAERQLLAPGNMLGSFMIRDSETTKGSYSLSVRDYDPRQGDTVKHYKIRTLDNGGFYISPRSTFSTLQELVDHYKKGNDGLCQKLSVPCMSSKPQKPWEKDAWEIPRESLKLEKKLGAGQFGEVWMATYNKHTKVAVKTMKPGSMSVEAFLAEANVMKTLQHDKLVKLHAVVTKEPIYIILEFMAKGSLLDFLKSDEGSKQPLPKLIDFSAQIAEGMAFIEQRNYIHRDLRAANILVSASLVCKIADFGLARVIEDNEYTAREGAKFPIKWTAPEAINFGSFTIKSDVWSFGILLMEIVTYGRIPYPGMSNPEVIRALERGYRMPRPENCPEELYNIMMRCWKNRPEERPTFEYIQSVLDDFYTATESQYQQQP
T2 sequence (P07948 63-512 T319F limits assumed): as the sequence (P07948 63-512 limits assumed) above, with T257F counted along it
T1 sequence (P07948 63-512 T319L limits assumed): as the sequence (P07948 63-512 limits assumed) above, with T257L counted along it
T3 sequence (P08631 78-526 T333M limits assumed): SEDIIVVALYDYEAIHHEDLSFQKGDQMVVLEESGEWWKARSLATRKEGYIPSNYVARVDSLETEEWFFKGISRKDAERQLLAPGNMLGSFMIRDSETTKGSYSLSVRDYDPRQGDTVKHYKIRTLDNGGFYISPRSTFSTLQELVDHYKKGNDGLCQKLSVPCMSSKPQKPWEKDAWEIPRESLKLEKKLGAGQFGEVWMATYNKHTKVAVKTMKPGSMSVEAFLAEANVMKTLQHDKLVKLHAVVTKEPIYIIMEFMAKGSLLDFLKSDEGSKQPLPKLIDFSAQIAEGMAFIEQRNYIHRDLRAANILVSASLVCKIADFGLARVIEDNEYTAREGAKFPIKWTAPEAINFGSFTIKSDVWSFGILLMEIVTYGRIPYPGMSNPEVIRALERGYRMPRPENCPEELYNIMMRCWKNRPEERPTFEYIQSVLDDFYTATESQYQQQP
T12 sequence (P07948 63-512 T319M limits assumed): as the sequence (P07948 63-512 limits assumed) above, with T257M counted along it
T4 sequence (P08631 78-526 limits assumed): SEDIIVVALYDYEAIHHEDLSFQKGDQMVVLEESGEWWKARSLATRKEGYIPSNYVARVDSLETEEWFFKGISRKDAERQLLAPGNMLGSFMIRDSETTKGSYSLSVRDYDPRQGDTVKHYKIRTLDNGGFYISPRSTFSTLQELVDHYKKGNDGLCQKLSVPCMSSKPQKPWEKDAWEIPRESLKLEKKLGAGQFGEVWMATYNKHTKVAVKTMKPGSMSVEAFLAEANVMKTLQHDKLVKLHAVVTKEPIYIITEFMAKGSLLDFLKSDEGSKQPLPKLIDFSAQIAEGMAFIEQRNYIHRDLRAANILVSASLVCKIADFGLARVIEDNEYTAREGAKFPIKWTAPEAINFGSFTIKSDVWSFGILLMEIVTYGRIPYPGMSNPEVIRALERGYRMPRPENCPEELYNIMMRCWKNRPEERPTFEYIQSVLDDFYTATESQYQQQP

IC50 [1]: 2030 ± 1090 nM
IC50 [2]: 1640 ± 154 nM
IC50 [3]: 1990 ± 377 nM
IC50 [4]: 1720 ± 93.5 nM
IC50 [5]: 795 ± 128 nM
IC50 [6]: 1200 ± 128 nM
IC50 (MV4-11 cells (parent)): 453 ± 90.7 nM
IC50 (MOLM14 cells (parent)): 1330 ± 183 nM
IC50 (MOLM13 cells (parent)): 1380 ± 124 nM
SMILES: NC(=O)c1cnc(N[C@@H]2CCCC[C@@H]2N)nc1Nc1cccc(-n2nccn2)c1 [PRT062607]
IC50 ([7]; Homo sapiens, all three parent AML cell lines and their resistant counterparts, read-out: IC50 values for growth suppression): 500 to 2000 nM
effect of added Syk inhibitor on sensitivity to A-419259 ([7]; fixed concentrations 50, 100 and 200 μM, 72 h, exception MV4-11 R2): did not affect

Km (Lyn T338L): 24 µM
Km (Lyn T338F): 87.3 µM
Km (Hck T338M): 6.9 µM
Km (Hck wild-type): 26 µM
Km (Fgr T338M): 5.3 µM
Km (Fgr wild-type): 17.9 µM
Km (Lyn wild-type): 32.8 µM
Km (Fgr T338L): 10 µM
Km (Hck T338F): 42 µM
Km (Hck T338L): 17.2 µM
Km (Fgr T338F): 95.7 µM
Km (Lyn T338M): 7 µM
SMILES: Nc1ncnc2c1ncn2[C@@H]1O[C@H](COP(=O)(O)OP(=O)(O)OP(=O)(O)O)[C@@H](O)[C@H]1O [ATP]

SMILES: CC(C)(C)c1cc(NC(=O)Nc2ccc(-c3cn4c(n3)sc3cc(OCCN5CCOCC5)ccc34)cc2)no1 [quizartinib]
inhibition of myeloid Src-family kinases [8]: does not inhibit
